Values joined by “and” are separate entries in the source; they are usually repeats but may differ in a detail not shown here. Equal entries are not always repeated. Toxic doses and inconclusive results are not listed. No stated cut-off is given here; in the data, active means T/C of 150% or more; inactive means T/C below 125%.
Tested on: L1210 leukemia ip in BDF1 mice, survival T/C
Assay: NCI In Vivo Anticancer Drug Screen. Data for tumor model L1210 Leukemia (intraperitoneal) in B6D2F1 (BDF1) mice
Details: endpoint: mean survival time, higher = longer survival
How it was run: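 Value reflects the ratio of survival in compound-treated mice to survival in vehicle-treated controls, with both groups carrying the same transplanted tumor.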

[1] = dose: 100.0 mg/kg/injection, schedule: Q04DX002 (ip), vehicle: saline
[2] = dose: 200.0 mg/kg/injection, schedule: Q04DX002 (ip), vehicle: saline
[3] = dose: 50.0 mg/kg/injection, schedule: Q01DX009 (ip), vehicle: saline
[4] = dose: 100.0 mg/kg/injection, schedule: Q01DX001 (ip), vehicle: saline
[5] = dose: 100.0 mg/kg/injection, schedule: Q04DX003 (ip), vehicle: saline
[6] = dose: 200.0 mg/kg/injection, schedule: Q01DX001 (ip), vehicle: saline
[7] = dose: 200.0 mg/kg/injection, schedule: Q04DX003 (ip), vehicle: saline
[8] = dose: 400.0 mg/kg/injection, schedule: Q01DX001 (ip), vehicle: saline
[9] = dose: 100.0 mg/kg/injection, schedule: Q04DX002 (ip), vehicle: Klucel (hydroxypropylcellulose) (HPC)
[10] = dose: 200.0 mg/kg/injection, schedule: Q04DX002 (ip), vehicle: Klucel (hydroxypropylcellulose) (HPC)
[11] = dose: 400.0 mg/kg/injection, schedule: Q04DX002 (ip), vehicle: Klucel (hydroxypropylcellulose) (HPC)
[12] = dose: 100.0 mg/kg/injection, schedule: Q01DX009 (ip), vehicle: Klucel (hydroxypropylcellulose) (HPC)
[13] = dose: 100.0 mg/kg/injection, schedule: Q04DX003 (ip), vehicle: Klucel (hydroxypropylcellulose) (HPC)
[14] = dose: 200.0 mg/kg/injection, schedule: Q01DX009 (ip), vehicle: Klucel (hydroxypropylcellulose) (HPC)
[15] = dose: 200.0 mg/kg/injection, schedule: Q04DX003 (ip), vehicle: Klucel (hydroxypropylcellulose) (HPC)
[16] = dose: 400.0 mg/kg/injection, schedule: Q04DX003 (ip), vehicle: Klucel (hydroxypropylcellulose) (HPC)
[17] = dose: 400.0 mg/kg/injection, schedule: Q04DX003 (ip), vehicle: saline
[18] = dose: 100.0 mg/kg/injection, schedule: Q01DX001 (ip), vehicle: Klucel (hydroxypropylcellulose) (HPC)
[19] = dose: 200.0 mg/kg/injection, schedule: Q01DX001 (ip), vehicle: Klucel (hydroxypropylcellulose) (HPC)
[20] = dose: 400.0 mg/kg/injection, schedule: Q01DX001 (ip), vehicle: Klucel (hydroxypropylcellulose) (HPC)
[21] = dose: 100.0 mg/kg/injection, schedule: Q01DX001 (ip), vehicle: carboxymethylcellulose (CMC)
[22] = dose: 200.0 mg/kg/injection, schedule: Q01DX001 (ip), vehicle: carboxymethylcellulose (CMC)
[23] = dose: 400.0 mg/kg/injection, schedule: Q01DX001 (ip), vehicle: carboxymethylcellulose (CMC)

Measured: T/C

CC/C=C1\CCOC1=O
inactive: [1] 102 % of control | [2] 102 % of control | dose: 400.0 mg/kg/injection, schedule: Q04DX002 (ip), vehicle: saline 115 % of control

Cc1cccc(CC23CC4CC(CC(C4)C2)C3)c1
inactive: dose: 100.0 mg/kg/injection, schedule: Q01DX009 (ip), vehicle: saline with Tween-80 91 % of control | dose: 100.0 mg/kg/injection, schedule: Q04DX003 (ip), vehicle: saline with Tween-80 102 % of control | dose: 200.0 mg/kg/injection, schedule: Q01DX009 (ip), vehicle: saline with Tween-80 90 % of control | dose: 200.0 mg/kg/injection, schedule: Q04DX003 (ip), vehicle: saline with Tween-80 100 % of control | dose: 400.0 mg/kg/injection, schedule: Q01DX009 (ip), vehicle: saline with Tween-80 95 % of control | dose: 400.0 mg/kg/injection, schedule: Q04DX003 (ip), vehicle: saline with Tween-80 98 % of control

O=C(O)c1cc(Cl)c(Cl)cc1Cl
inactive: [3] 104 % of control | [4] 93 % of control | dose: 100.0 mg/kg/injection, schedule: Q01DX009 (ip), vehicle: saline 98 % of control | [5] 100 % of control | [6] 86 % of control | [7] 102 % of control | [8] 94 % of control

CC12CCC(/C(=N/O)C1=O)C2(C)C (stereo not given)
inactive: [9] 106 % of control | [10] 110 % of control | [11] 103 % of control

CS(=O)(=O)OCCN(CCOS(C)(=O)=O)c1ccc([N+](=O)[O-])c(F)c1
inactive: dose: 50.0 mg/kg/injection, schedule: Q01DX001 (ip), vehicle: saline 110 % of control | [4] 112 % of control | [6] 115 % of control | [8] 105 % of control

COc1ccc(C(=O)O)nc1C
inactive: dose: 75.0 mg/kg/injection, schedule: Q01DX001 (ip), vehicle: acetone 98 % of control | dose: 150.0 mg/kg/injection, schedule: Q01DX001 (ip), vehicle: acetone 101 % of control | dose: 300.0 mg/kg/injection, schedule: Q01DX001 (ip), vehicle: acetone 98 % of control

Nc1ccc(C(=O)Oc2ccc([N+](=O)[O-])cc2)c(O)c1
inactive: [12] 95 % of control | [13] 100 % of control | [14] 97 % of control | [15] 88 % of control | dose: 400.0 mg/kg/injection, schedule: Q01DX009 (ip), vehicle: Klucel (hydroxypropylcellulose) (HPC) 87 % of control | [16] 96 % of control

c1ccc2c(c1)Oc1ccccc1[Te]2
inactive: dose: 100.0 mg/kg/injection, schedule: Q04DX002 (ip), vehicle: saline with Tween-80 100 % of control | dose: 200.0 mg/kg/injection, schedule: Q04DX002 (ip), vehicle: saline with Tween-80 103 % of control | dose: 400.0 mg/kg/injection, schedule: Q04DX002 (ip), vehicle: saline with Tween-80 88 % of control

C=C(Br)CN=C=S
inactive: dose: 12.5 mg/kg/injection, schedule: Q01DX009 (ip), vehicle: saline 96 % of control | dose: 25.0 mg/kg/injection, schedule: Q01DX009 (ip), vehicle: saline 104 % of control | [3] 102 % of control

CN1CCCCCC1=O
inactive: [5] 100 % of control | [7] 111 % of control | [17] 101 % of control

CCCNS(=O)(=O)c1ccc(C(=S)OCC)cc1
inactive: [18] 98 % of control | [19] 98 % of control | [20] 94 % of control

CC1Nc2ccccc2N2C(=O)CCC12 (stereo not given)
inactive: dose: 50.0 mg/kg/injection, schedule: Q01DX009 (ip), vehicle: Klucel (hydroxypropylcellulose) (HPC) 106 % of control | [12] 103 % of control | [14] 106 % of control

O=c1oc2cccc(O)c2c(O)c1Cc1ccccc1
inactive: [5] 97 % of control | [7] 94 % of control | [17] 94 % of control

O=C(CCl)N1CCN(C(=O)CCl)CC1
inactive: dose: 10.0 mg/kg/injection, schedule: Q01DX009 (ip), vehicle: Klucel (hydroxypropylcellulose) (HPC) 110 % of control | dose: 20.0 mg/kg/injection, schedule: Q01DX009 (ip), vehicle: Klucel (hydroxypropylcellulose) (HPC) 101 % of control | dose: 20.0 mg/kg/injection, schedule: Q04DX003 (ip), vehicle: Klucel (hydroxypropylcellulose) (HPC) 104 % of control | dose: 40.0 mg/kg/injection, schedule: Q04DX003 (ip), vehicle: Klucel (hydroxypropylcellulose) (HPC) 106 % of control

O=C(O)C1C2CC=CCC21 (stereo not given)
inactive: dose: 25.0 mg/kg/injection, schedule: Q01DX001 (ip), vehicle: Klucel (hydroxypropylcellulose) (HPC) 102 % of control | dose: 50.0 mg/kg/injection, schedule: Q01DX001 (ip), vehicle: Klucel (hydroxypropylcellulose) (HPC) 101 % of control | [18] 93 % of control and 94 % of control | [13] 101 % of control | [19] 93 % of control | [15] 98 % of control | [20] 97 % of control | [16] 102 % of control

O=[N+]([O-])c1cccc(C=Nc2ccc(Nc3ccccc3)cc2)c1
inactive: [9] 114 % of control | [10] 100 % of control | [11] 111 % of control

NC(N)=N/N=C(\c1ccc(Cl)cc1)C1CC1
inactive: dose: 15.0 mg/kg/injection, schedule: Q01DX Z (ip), vehicle: methylcellulose (MC) 101 % of control | dose: 30.0 mg/kg/injection, schedule: Q01DX Z (ip), vehicle: methylcellulose (MC) 95 % of control | dose: 30.0 mg/kg/injection, schedule: Q01DX Z (oral), vehicle: methylcellulose (MC) 92 % of control | dose: 60.0 mg/kg/injection, schedule: Q01DX Z (ip), vehicle: methylcellulose (MC) 98 % of control | dose: 60.0 mg/kg/injection, schedule: Q01DX Z (oral), vehicle: methylcellulose (MC) 93 % of control | dose: 240.0 mg/kg/injection, schedule: Q01DX Z (oral), vehicle: methylcellulose (MC) 95 % of control | dose: 375.0 mg/kg/injection, schedule: Q01DX Z (oral), vehicle: methylcellulose (MC) 92 % of control | dose: 500.0 mg/kg/injection, schedule: Q01DX Z (oral), vehicle: methylcellulose (MC) 88 % of control

CCOC(=O)C(=O)c1cn(C)c2ccccc12
inactive: dose: 50.0 mg/kg/injection, schedule: Q01DX001 (ip), vehicle: carboxymethylcellulose (CMC) 109 % of control | [21] 106 % of control | [22] 106 % of control | [23] 101 % of control

C=CC(=O)OCC(C)(C)C
inactive: [1] 100 % of control and 103 % of control | [2] 100 % of control and 107 % of control | dose: 800.0 mg/kg/injection, schedule: Q04DX002 (ip), vehicle: saline 97 % of control

COc1ccc(/C=C2\CN(CCCC(=O)O)C(=O)C2=O)cc1
inactive: [4] 103 % of control | [5] 100 % of control | [6] 98 % of control | [7] 100 % of control | [8] 100 % of control | [17] 100 % of control

O=C(O)CCCCCN1C(=O)C2OC3C(=O)N(CCCCCC(=O)O)C(=O)C3C2C1=O (stereo not given)
inactive: dose: 100.0 mg/kg/injection, schedule: Q04DX003 (ip), vehicle: carboxymethylcellulose (CMC) 95 % of control | dose: 200.0 mg/kg/injection, schedule: Q04DX003 (ip), vehicle: carboxymethylcellulose (CMC) 95 % of control | dose: 400.0 mg/kg/injection, schedule: Q04DX003 (ip), vehicle: carboxymethylcellulose (CMC) 97 % of control

CC1OC(OC2C(O)C(O)C(O)C(O)C2O)C(N)CC1N=C(N)C(=O)O (stereo not given)
inactive: [21] 90 % of control | [22] 96 % of control | [23] 100 % of control

O=[N+]([O-])n1cnnc1-c1ccccc1
inactive: dose: 12.5 mg/kg/injection, schedule: Q04DX003 (ip), vehicle: gum acacia 96 % of control | dose: 25.0 mg/kg/injection, schedule: Q04DX003 (ip), vehicle: gum acacia 102 % of control | dose: 50.0 mg/kg/injection, schedule: Q04DX003 (ip), vehicle: gum acacia 98 % of control

Source: PubChem BioAssay AID248 (DTP/NCI, 2004)
